# Measurements taken from patent US7390796B2, “Fatty acid modified forms of glucocorticoids” (Sepracor Inc., priority 2002, dated 2008).
# What was measured:
# WI-38 cells [1] = experiment: IC50 for inhibition of IL-1β-stimulated PGE2 production in WI-38 cells; type: cell-based, human; settings: PGE2 in supernatant, IL-1β stimulation, 24 hours, EIA
# Protocol: Nominal 5 mM solutions of the budesonide fatty acid esters were made in DMSO by adding the following amounts of compound and DMSO: docosahexaenoic acid ester of budesonide 7.5 mg in 2 ml DMSO, docosapentaenoic acid ester of budesonide 32.9 mg in 9.1 ml DMSO and eicosapentaenoic acid ester of budesonide 20.3 mg in 5.8 ml DMSO. A 5 mM solution of budesonide was made by dissolving 4.5 mg of budesonide (Sigma Chemical Company product number B 7777) in 2.1 ml DMSO.
# (§1) The WI-38 human lung fibroblast line was obtained from the ATCC (catalog number 75-CCL) and maintained in Basel Medium Eagle with Earle's salts (GibcoBRL product number 21010-046) supplemented with 2 mM glutamine and 10% fetal calf serum at 37° C. in a 7% CO2 (balance air), humidified atmosphere. One week before experiments were done, the WI-38 cells were seeded into 48-well tissue culture dishes and maintained in media containing 10% fetal calf serum. The cells were used when confluent. The day before the experiment the cells were fed fresh media containing 10% fetal calf serum (0.25 ml per well). One the day of the experiment the media was removed from the cells and 0.25 ml of media containing 5% fetal calf serum added.
# To determine the IC50 values for the compounds, 1 to 1000 dilutions were made of the 5 mM stock solutions in DMSO to give 5 uM solutions. These solutions were serially diluted 1:2 in DMSO to give a series of 12 dilutions ranging from 5 uM to 2.4 nM. 0.0025 ml aliquots of the 12 dilutions were added to wells of the WI-38 cells to give final compound concentrations ranging from 50 nM to 0.024 nM. The cells were stimulated by addition of 0.001 ml of 0.025 ug/ml recombinant human Interleukin-1β (IL-1β-Calbiochem catalog number 407615) in 0.1% bovine serum albumin in phosphate buffered saline. The cells were incubated for 24 hours and the supernatants harvested. The level of PGE2 in the supernatants was assayed using a commercial Enzyme Immuno Assay (EIA) kit (Cayman Chemical catalog number 514010) after diluting 1:10 in EIA buffer according to the manufacturer's directions. The data from these experiments was fit to a 4 parameter logistic function using the IC50 routine in the Grafit 4 program (Erithecus software).
# WI-38 cells [2] = experiment: Wash-out (duration of action) experiment, PGE2 production in IL-1β-stimulated WI-38 cells; type: cell-based, human; settings: 2 hours at 50 times the IC50, washed 5 times, IL-1β stimulation, 24 hours
# Protocol: as §1
# (§2) To test for duration of action, a wash-out experiment was performed as follows. Confluent cells in 48-well tissue culture dishes were treated with concentrations of the above compounds that were 50 times the IC50 values as determined above for 2 hours. The media was removed and the wells washed 5 times with 0.25 ml of media containing 5% fetal calf serum. 0.25 ml of media containing 5% fetal calf serum was then added. The WI-38 cells were stimulated by addition of 0.001 ml of 0.025 ug/ml recombinant human Interleukin-1β (Calbiochem catalog number 407615) in 0.1% bovine serum albumin in phosphate buffered saline. The RAW 264.7 cells were stimulated by addition of 0.001 ml of 0.5 ug/ml E. coli 0127:B8 lipopolysaccharide (LPS-Sigma catalog number L-4516) in 0.1% bovine serum albumin in phosphate buffered saline. The cells were incubated for 24 hours and the supernatants harvested. The level of PGE2 in the supernatants was assayed using a commercial Enzyme Immuno Assay (EIA) kit (Cayman Chemical catalog number 514010) after diluting 1:10 in EIA buffer according to the manufacturer's directions. Eight wells were used for each concentration and the results from these eight wells were averaged.
# RAW 264.7 cells = experiment: Wash-out (duration of action) experiment, PGE2 production in LPS-stimulated RAW 264.7 cells; type: cell-based, rat; settings: 2 hours at 50 times the IC50, washed 5 times, E. coli LPS stimulation, 24 hours
# Protocol: The […] cell line RAW 264.7 was obtained from the ATCC (catalog number 71-TIB) and maintained in Dulbecco's Modified Eagle Medium (GibcoBRL product number 11960-044) supplemented with 2 mM glutamine, 1 mM sodium pyruvate and 10% fetal calf serum at 37° C. in a 10% CO2 (balance air), humidified atmosphere. One week before experiments were done, the WI-38 cells were seeded into 48-well tissue culture dishes and maintained in media containing 10% fetal calf serum. The cells were used when confluent. The day before the experiment the cells were fed fresh media containing 10% fetal calf serum (0.25 ml per well). One the day of the experiment the media was removed from the cells and 0.25 ml of media containing 5% fetal calf serum added.
# as §2
# paw edema = experiment: Rat paw edema model; type: in vivo
# Protocol: Putative anti-inflammatory agents may also be tested in vivo in a rat paw edema model [Hirschelmann, R. and Bekemeier, H., Int J Tissue React 6, 471-475 (1984)], which persons of skill in the art accept as predictive of efficacy in treating asthma and rhinitis in humans. The phytanic acid ester of budesonide was tested in this model.
smiles,measurement,setting,value
"CCCC1O[C@@H]2C[C@H]3[C@@H]4CCC5=CC(=O)C=C[C@]5(C)[C@H]4[C@@H](O)C[C@]3(C)[C@]2(C(=O)CO)O1 (stereo partly shown) [Budesonide, budesonide, reference compound]",IC50,"WI-38 cells [1]; Homo sapiens, WI-38",0.2 nM
same,PGE2 production,WI-38 cells [2],2688 pg/mL
same,PGE2 production,RAW 264.7 cells,1339 pg/mL
same,percent reduction in paw volume,"paw edema; dose 0.001 μg/paw, 1.5 hours",0%
same,percent reduction in paw volume,"paw edema; dose 0.001 μg/paw, 3 hours",20%
same,percent reduction in paw volume,"paw edema; dose 0.001 μg/paw, 4.5 hours",15%
same,percent reduction in paw volume,"paw edema; dose 0.001 μg/paw, 24 hours",4%
same,percent reduction in paw volume,"paw edema; dose 0.001 μg/paw, 48 hours",3%
same,percent reduction in paw volume,"paw edema; dose 0.001 μg/paw, 72 hours",0%
same,percent reduction in paw volume,"paw edema; dose 0.01 μg/paw, 1.5 hours",0%
same,percent reduction in paw volume,"paw edema; dose 0.01 μg/paw, 3 hours",18%
same,percent reduction in paw volume,"paw edema; dose 0.01 μg/paw, 4.5 hours",0%
same,percent reduction in paw volume,"paw edema; dose 0.01 μg/paw, 24 hours",11%
same,percent reduction in paw volume,"paw edema; dose 0.01 μg/paw, 48 hours",0%
same,percent reduction in paw volume,"paw edema; dose 0.01 μg/paw, 72 hours",3%
same,percent reduction in paw volume,"paw edema; dose 0.1 μg/paw, 1.5 hours",14%
same,percent reduction in paw volume,"paw edema; dose 0.1 μg/paw, 3 hours",5%
same,percent reduction in paw volume,"paw edema; dose 0.1 μg/paw, 4.5 hours",0%
same,percent reduction in paw volume,"paw edema; dose 0.1 μg/paw, 24 hours",0%
same,percent reduction in paw volume,"paw edema; dose 0.1 μg/paw, 48 hours",0%
same,percent reduction in paw volume,"paw edema; dose 0.1 μg/paw, 72 hours",0%
same,percent reduction in paw volume,"paw edema; dose 1 μg/paw, 1.5 hours",36%
same,percent reduction in paw volume,"paw edema; dose 1 μg/paw, 3 hours",45%
same,percent reduction in paw volume,"paw edema; dose 1 μg/paw, 4.5 hours",32%
same,percent reduction in paw volume,"paw edema; dose 1 μg/paw, 24 hours",44%
same,percent reduction in paw volume,"paw edema; dose 1 μg/paw, 48 hours",17%
same,percent reduction in paw volume,"paw edema; dose 1 μg/paw, 72 hours",10%
same,percent reduction in paw volume,"paw edema; dose 10 μg/paw, 1.5 hours",11%
same,percent reduction in paw volume,"paw edema; dose 10 μg/paw, 3 hours",33%
same,percent reduction in paw volume,"paw edema; dose 10 μg/paw, 4.5 hours",34%
same,percent reduction in paw volume,"paw edema; dose 10 μg/paw, 24 hours",70%
same,percent reduction in paw volume,"paw edema; dose 10 μg/paw, 48 hours",38%
same,percent reduction in paw volume,"paw edema; dose 10 μg/paw, 72 hours",6%
CCC=CCC=CCC=CCC=CCC=CCCCCCC(=O)OCC(=O)C12OC(CCC)OC1CC1C3CCC4=CC(=O)C=CC4(C)C3C(O)CC12C (stereo not shown) [docosapentaenoic acid ester of budesonide],IC50,WI-38 cells [1],9 nM
same,PGE2 production,WI-38 cells [2],200 pg/mL
same,PGE2 production,RAW 264.7 cells,622 pg/mL
CCC=CCC=CCC=CCC=CCC=CCCCC(=O)OCC(=O)C12OC(CCC)OC1CC1C3CCC4=CC(=O)C=CC4(C)C3C(O)CC12C (stereo not shown) [eicosapentaenoic acid ester of budesonide],IC50,WI-38 cells [1],1.3 nM
same,PGE2 production,WI-38 cells [2],806 pg/mL
same,PGE2 production,RAW 264.7 cells,576 pg/mL
"CCC=CCC=CCC=CCC=CCC=CCC=CCCC(=O)OCC(=O)C12OC(CCC)OC1CC1C3CCC4=CC(=O)C=CC4(C)C3C(O)CC12C (stereo not shown) [Docosahexaenoic acid ester of budesonide, docosahexaenoic acid ester of budesonide]",IC50,WI-38 cells [1],1.1 nM
same,PGE2 production,WI-38 cells [2],2075 pg/mL
same,PGE2 production,RAW 264.7 cells,892 pg/mL
"CCCC1OC2CC3C4CCC5=CC(=O)C=CC5(C)C4C(O)CC3(C)C2(C(=O)COC(=O)CC(C)CCCC(C)CCCC(C)CCCC(C)C)O1 (stereo not shown) [Phytanic acid ester of Budesonide, phytanic acid ester of budesonide]",percent reduction in paw volume,"paw edema; dose 0.0017 μg/paw, 1.5 hours",0%
same,percent reduction in paw volume,"paw edema; dose 0.0017 μg/paw, 3 hours",10%
same,percent reduction in paw volume,"paw edema; dose 0.0017 μg/paw, 4.5 hours",12%
same,percent reduction in paw volume,"paw edema; dose 0.0017 μg/paw, 24 hours",4%
same,percent reduction in paw volume,"paw edema; dose 0.0017 μg/paw, 48 hours",7%
same,percent reduction in paw volume,"paw edema; dose 0.0017 μg/paw, 72 hours",3%
same,percent reduction in paw volume,"paw edema; dose 0.017 μg/paw, 1.5 hours",0%
same,percent reduction in paw volume,"paw edema; dose 0.017 μg/paw, 3 hours",0%
same,percent reduction in paw volume,"paw edema; dose 0.017 μg/paw, 4.5 hours",0%
same,percent reduction in paw volume,"paw edema; dose 0.017 μg/paw, 24 hours",0%
same,percent reduction in paw volume,"paw edema; dose 0.017 μg/paw, 48 hours",0%
same,percent reduction in paw volume,"paw edema; dose 0.017 μg/paw, 72 hours",6%
same,percent reduction in paw volume,"paw edema; dose 0.17 μg/paw, 1.5 hours",0%
same,percent reduction in paw volume,"paw edema; dose 0.17 μg/paw, 3 hours",0%
same,percent reduction in paw volume,"paw edema; dose 0.17 μg/paw, 4.5 hours",0%
same,percent reduction in paw volume,"paw edema; dose 0.17 μg/paw, 24 hours",0%
same,percent reduction in paw volume,"paw edema; dose 0.17 μg/paw, 48 hours",0%
same,percent reduction in paw volume,"paw edema; dose 0.17 μg/paw, 72 hours",0%
same,percent reduction in paw volume,"paw edema; dose 1.7 μg/paw, 1.5 hours",18%
same,percent reduction in paw volume,"paw edema; dose 1.7 μg/paw, 3 hours",15%
same,percent reduction in paw volume,"paw edema; dose 1.7 μg/paw, 4.5 hours",2%
same,percent reduction in paw volume,"paw edema; dose 1.7 μg/paw, 24 hours",30%
same,percent reduction in paw volume,"paw edema; dose 1.7 μg/paw, 48 hours",17%
same,percent reduction in paw volume,"paw edema; dose 1.7 μg/paw, 72 hours",16%
same,percent reduction in paw volume,"paw edema; dose 17 μg/paw, 1.5 hours",11%
same,percent reduction in paw volume,"paw edema; dose 17 μg/paw, 3 hours",5%
same,percent reduction in paw volume,"paw edema; dose 17 μg/paw, 4.5 hours",2%
same,percent reduction in paw volume,"paw edema; dose 17 μg/paw, 24 hours",74%
same,percent reduction in paw volume,"paw edema; dose 17 μg/paw, 48 hours",79%
same,percent reduction in paw volume,"paw edema; dose 17 μg/paw, 72 hours",65%
same,duration of effect,"paw edema; rat paw edema model, summary in words",greatly extended duration of effect
